This is an account of results in ChEMBL document CHEMBL4382235, “Design, synthesis and biological evaluation of novel 1-phenyl phenanthridin-6(5H)-one derivatives as anti-tumor agents targeting TOPK” (Eur J Med Chem, 2019).

Molecules are shown by their SMILES.

The test system of assay [1] is A549. As to the kind of experiment: cells. Particulars: Homo sapiens, A549, 72 h.
Description: Antiproliferative activity against human A549 cells after 72 hrs by MTT assay
The test system of assay [2] is HCT-116. The experiment in a line: cells. To be noted: Homo sapiens, HCT-116, 72 h.
Description: Antiproliferative activity against human HCT116 cells after 72 hrs by MTT assay
Assay [3] concerns HCT-15. As to the kind of experiment: cells. Particulars: Homo sapiens, HCT-15, 72 h.
Description: Antiproliferative activity against human HCT15 cells after 72 hrs by MTT assay
Assay [4] deals with HCT-116. The experiment in a line: animal or person. Particulars: Mus musculus, HCT-116, po, read-out: TGI.

In the case of `Cc1cc(O)c(-c2ccc([C@@H](C)N)cc2)c2c1[nH]c(=O)c1sccc12`, the concentration for half-maximal inhibition (IC50) was found to be 360 nM in assay [1], 468 nM in assay [2] and 257 nM in assay [3].
For the compound `Cc1cc(O)c(-c2ccc([C@@H](C)CN(C)C)cc2)c2c1[nH]c(=O)c1sccc12`, the IC50 in assay [1] worked out at 20.4 nM; in assay [2], 45 nM; in assay [3], 73.1 nM. For the same compound, the inhibition in vivo at 15 mg/kg in assay [4] turned out to be 49.4%.
Take `C[C@H](c1ccc(-c2c(O)cc(Cl)c3[nH]c(=O)c4ccccc4c23)cc1)N(C)C`: the IC50 in assay [1], in assay [2] and in assay [3] was more than 1000 nM throughout.
In the case of `NCC1(c2ccc(-c3c(O)cc(Cl)c4[nH]c(=O)c5c(O)cccc5c34)cc2)CC1`, the IC50 in assay [1] is 437 nM; in assay [2] it was 564 nM.
In the same order, the values of `COc1cc(C)c2[nH]c(=O)c3ccccc3c2c1-c1ccc(C2(CN)CC2)cc1` are 894 nM and more than 1000 nM.
Regarding `C[C@@H](N)c1ccc(-c2c(O)cc(Cl)c3[nH]c(=O)c4ccccc4c23)cc1`, the IC50 in assay [1] is 600 nM; in assay [2] it was more than 1000 nM; in assay [3] it was 801 nM.
On the same counts, the results for `Cc1cc(O)c(-c2ccc([C@@H](C)N(C)C)cc2)c2c1[nH]c(=O)c1c(C)cccc12` are 470 nM, 469 nM and 397 nM.
On the same counts, the results for `Cc1cc(O)c(-c2ccc([C@@H](C)CN(C)C)cc2)c2c1[nH]c(=O)c1ccccc12` are 264 nM, 299 nM and 600 nM.
Turning to `Cc1cc(O)c(-c2ccc([C@@H](C)CN)cc2)c2c1[nH]c(=O)c1ccccc12`, the IC50 in assay [1] came to 78.7 nM; in assay [2] it was 114 nM; in assay [3], 365 nM.
As for `Cc1cc(O)c(-c2ccc([C@@H](C)N(C)C)cc2)c2c1[nH]c(=O)c1ccccc12`, the IC50 in assay [1] turned out to be 250 nM; in assay [2] it was 314 nM.
`Cc1ccc2c(=O)[nH]c3c(C)cc(O)c(-c4ccc([C@@H](C)CN)cc4)c3c2c1`: the results for the IC50 in assay [1], in assay [2] and in assay [3] were 60.3 nM, 156 nM and 327 nM, respectively.
As for `Cc1ccc2c(=O)[nH]c3c(C)cc(O)c(-c4ccc([C@@H](C)N)cc4)c3c2c1`, the IC50 was found to be 120 nM in assay [1], 385 nM in assay [2] and 217 nM in assay [3].
As to `Cc1ccc2c(=O)[nH]c3c(C)cc(O)c(-c4ccc([C@@H](C)N(C)C)cc4)c3c2c1`, the IC50 in assay [1] was determined as 317 nM; in assay [2], 274 nM; in assay [3], 467 nM.
For the compound `Cc1cc(O)c(-c2ccc(C3(CN(C)C)CC3)cc2)c2c1[nH]c(=O)c1ccccc12`, the IC50 in assay [1] is more than 1000 nM; in assay [2] it was 950 nM.
For `Cc1cc(O)c(-c2ccc(C3(CN)CC3)cc2)c2c1[nH]c(=O)c1ccccc12`, the half-inhibitory concentration (IC50) in assay [1] turned out to be 211 nM; in assay [2], 231 nM; in assay [3], 398 nM.
Regarding `Cc1cc(O)c(-c2ccc([C@@H](C)CN(C)C)cc2)c2c1[nH]c(=O)c1c(C)cccc12`, the IC50 in assay [1] was found to be 287 nM; in assay [2], 419 nM; in assay [3], 337 nM.
On the same counts, the results for `Cc1cc(O)c(-c2ccc([C@@H](C)CN)cc2)c2c1[nH]c(=O)c1c(C)cccc12` are 25.9 nM, 75.8 nM and 301 nM.
Regarding `Cc1ccc2c(c1)c(=O)[nH]c1c(C)cc(O)c(-c3ccc([C@@H](C)N)cc3)c12`, the IC50 in assay [1] is more than 1000 nM; in assay [2] it was 571 nM.
On the same counts, the results for `Cc1cc(O)c(-c2ccc(C3(CN(C)C)CC3)cc2)c2c1[nH]c(=O)c1c(N(C)C)cccc12` are more than 1000 nM and more than 1000 nM.
As for `Cc1ccc2c(=O)[nH]c3c(C)cc(O)c(-c4ccc([C@@H](C)CN(C)C)cc4)c3c2c1`, the IC50 in assay [1] was 466 nM; in assay [2], 385 nM; in assay [3], 501 nM.
On the same counts, the results for `Cc1cc(O)c(-c2ccc([C@@H](C)N)cc2)c2c1[nH]c(=O)c1c(O)cccc12` are 82.5 nM, 102 nM and 96.7 nM.
`Cc1cc(O)c(-c2ccc([C@@H](C)CN)cc2)c2c1[nH]c(=O)c1c(N(C)C)cccc12`: the IC50 in assay [1] and in assay [2] was more than 1000 nM each time.
In the case of `Cc1cc(O)c(-c2ccc(C3(CN(C)C)CC3)cc2)c2c1[nH]c(=O)c1c(O)cccc12`, the IC50 in assay [1] was found to be 406 nM; in assay [2], 141 nM.
For the compound `Cc1cc(O)c(-c2ccc([C@@H](C)N)cc2)c2c1[nH]c(=O)c1ccccc12`, the IC50 in assay [1] is 920 nM; in assay [2], more than 1000 nM; in assay [3] it was more than 1000 nM.
Consider `CN(C)CC1(c2ccc(-c3c(O)cc(Cl)c4[nH]c(=O)c5c(O)cccc5c34)cc2)CC1`, for which the 50% inhibitory concentration (IC50) is 898 nM in assay [1] and more than 1000 nM in assay [2].
In the case of `C[C@@H](CN(C)C)c1ccc(-c2c(O)cc(Cl)c3[nH]c(=O)c4ccccc4c23)cc1`, the IC50 in assay [1], in assay [2] and in assay [3] was more than 1000 nM in each case.
As for `Cc1cc(O)c(-c2ccc([C@@H](C)CN)cc2)c2c1[nH]c(=O)c1c(F)cccc12`, the IC50 in assay [1] is 110 nM; in assay [2], 438 nM; in assay [3], more than 1000 nM.
Consider `C[C@@H](N)c1ccc(-c2c(O)cc(Cl)c3[nH]c(=O)c4c(O)cccc4c23)cc1`, for which the IC50 in assay [1] was found to be 554 nM; in assay [2], 720 nM.
Take `Cc1cc(O)c(-c2ccc([C@@H](C)N)cc2)c2c1[nH]c(=O)c1c(C)cccc12`: the concentration for half-maximal inhibition (IC50) in assay [1] came out at 187 nM; in assay [2], 242 nM; in assay [3], 505 nM.
On the same counts, the results for `COc1cc(C)c2[nH]c(=O)c3ccccc3c2c1-c1ccc([C@@H](C)CN)cc1` are 360 nM, 357 nM and 278 nM.
`Cc1cc(O)c(-c2ccc([C@@H](C)CN)cc2)c2c1[nH]c(=O)c1sccc12`: the IC50 in assay [1] was 19.5 nM; in assay [2], 18.9 nM; in assay [3], 187 nM.
Turning to `Cc1cc(O)c(-c2ccc(C3(CN)CC3)cc2)c2c1[nH]c(=O)c1c(O)cccc12`, the figures for the IC50 in assay [1] and in assay [2] were 136 nM and 44.7 nM, respectively.
For `Cc1cc(O)c(-c2ccc([C@@H](C)CN(C)C)cc2)c2c1[nH]c(=O)c1c(O)cccc12`, the values for the IC50 in assay [1], in assay [2] and in assay [3] were 113 nM, 215 nM and 76 nM, respectively.
Turning to `COc1cc(C)c2[nH]c(=O)c3ccccc3c2c1-c1ccc([C@@H](C)N)cc1`, the IC50 in assay [1] and in assay [2] was more than 1000 nM each time.
In the case of `C[C@@H](CN(C)C)c1ccc(-c2c(O)cc(Cl)c3[nH]c(=O)c4c(O)cccc4c23)cc1`, the figures for the IC50 in assay [1] and in assay [2] were 554 nM and 534 nM, respectively.
With `Cc1cc(O)c(-c2ccc([C@@H](C)N(C)C)cc2)c2c1[nH]c(=O)c1c(O)cccc12`, the IC50 in assay [1] was determined as 128 nM; in assay [2], 396 nM; in assay [3], 162 nM.
On to `C[C@@H](CN)c1ccc(-c2c(O)cc(Cl)c3[nH]c(=O)c4ccccc4c23)cc1`, for which the IC50 in assay [1] was more than 1000 nM; in assay [2], 636 nM; in assay [3] it was 309 nM.
For `Cc1ccc2c(c1)c(=O)[nH]c1c(C)cc(O)c(-c3ccc([C@@H](C)N(C)C)cc3)c12`, the IC50 in assay [1] and in assay [2] was more than 1000 nM throughout.
As for `C[C@@H](CN)c1ccc(-c2c(O)cc(Cl)c3[nH]c(=O)c4c(O)cccc4c23)cc1`, the IC50 in assay [1] amounted to 103 nM; in assay [2], 372 nM.
In the same order, the values of `Cc1ccc2c(c1)c(=O)[nH]c1c(C)cc(O)c(-c3ccc([C@@H](C)CN(C)C)cc3)c12` are more than 1000 nM and 830 nM.
On the same counts, the results for `C[C@H](c1ccc(-c2c(O)cc(Cl)c3[nH]c(=O)c4c(O)cccc4c23)cc1)N(C)C` are 516 nM and more than 1000 nM.
On to `Cc1ccc2c(c1)c(=O)[nH]c1c(C)cc(O)c(-c3ccc([C@@H](C)CN)cc3)c12`, for which the results for the IC50 in assay [1] and in assay [2] were more than 1000 nM and 962 nM, respectively.

In general, IC50 refers to the concentration needed to halve the response being measured. A lower IC50 goes with inhibition by little substance.
